According to patent US20240018125A1, “CYCLIC ISOTHIOUREA DERIVATIVES AS CXCR4 MODULATORS” (ERMIUM THERAPEUTICS, priority 2020, published 2024):
Structures can show the parent of a compound that is named as a salt.

| Structure (SMILES) | melting point [°C] |
| --- | --- |
| Cc1ccc(CC2CN3C(CSC4=NCc5ccccc5N4)=CSC3=N2)cc1 (centres unmarked) (as salt: hydrochloride) [Example 122, 3-(((1,4-dihydroquinazolin-2-yl)thio)methyl)-6-(4-methylbenzyl)-5,6-dihydroimidazo[2,1-b]thiazole dihydrochloride] | 158 to 170 |
| CN1CCN=C1SCC1=CSC2=Nc3ccccc3CN12 (as salt: hydrochloride) [Example 36, 3-(((1-methyl-4,5-dihydro-1H-imidazol-2-yl)thio)methyl)-5H-thiazolo[2,3-b]quinazoline dihydrochloride] | 247 to 248 |
| Cc1cccc(CC2CN3C(CSC4=NCc5ccccc5N4)=CSC3=N2)c1 (centres unmarked) (as salt: hydrochloride) [Example 112, 3-(((1,4-dihydroquinazolin-2-yl)thio)methyl)-6-(3-methylbenzyl)-5,6-dihydroimidazo[2,1-b]thiazole dihydrochloride] | 136 to 145 |
| C1=C(CSC2=NCc3ccccc3N2)N2CC(CCc3ccccc3)N=C2S1 (centres unmarked) (as salt: hydrochloride) [Example 126, 3-(((1,4-dihydroquinazolin-2-yl)thio)methyl)-6-phenethyl-5,6-dihydroimidazo[2,1-b]thiazole dihydrochloride] | 136 to 142 |
| C1=C(CSC2=NCc3ccccc3N2)N2CC(c3ccccc3)N=C2S1 (centres unmarked) (as salt: hydrochloride) [Example 120, 3-(((1,4-dihydroquinazolin-2-yl)thio)methyl)-6-phenyl-5,6-dihydroimidazo[2,1-b]thiazole dihydrochloride] | 185 to 190 |
| CCCCN1Cc2ccccc2N=C1SCC1=CSC2=NC(Cc3ccccc3)CN12 (centres unmarked) (as salt: hydrochloride) [Example 93, 6-benzyl-3-(((3-butyl-3,4-dihydroquinazolin-2-yl)thio)methyl)-5,6-dihydroimidazo[2,1-b]thiazole dihydrochloride] | 40 to 44 |
| CC1(C)N=C(SCC2=CSC3=Nc4cccc(F)c4CN23)Nc2ccccc21 (as salt: hydrochloride) [Example 73, 3-(((4,4-dimethyl-1,4-dihydroquinazolin-2-yl)thio)methyl)-6-fluoro-5H-thiazolo[2,3-b]quinazoline dihydrochloride] | 190 to 194 |
| CC1N=C(SCC2=CSC3=NC(Cc4ccccc4)CN23)Nc2ccccc21 (centres unmarked) (as salt: hydrochloride) [Example 113, 6-benzyl-3-(((4-methyl-1,4-dihydroquinazolin-2-yl)thio)methyl)-5,6-dihydroimidazo[2,1-b]thiazole dihydrochloride] | 80 to 88 |
| Fc1ccc2c(c1)NC(SCC1=CSC3=NC(Cc4ccccc4)CN13)=NC2 (centres unmarked) (as salt: hydrochloride) [Example 89, 6-benzyl-3-(((7-fluoro-1,4-dihydroquinazolin-2-yl)thio)methyl)-5,6-dihydroimidazo[2,1-b]thiazole dihydrochloride] | 125 to 130 |
| C1=C(CSC2=NCc3ccccc3N2)N2Cc3ccccc3N=C2S1 (as salt: hydrochloride) [Example 12, 3-(((1,4-dihydroquinazolin-2-yl)thio)methyl)-5H-thiazolo[2,3-b]quinazoline dihydrochloride] | > 250 |
| C1=C(CSC2=NCc3ccccc3N2)N2Cc3cccnc3N=C2S1 (as salt: hydrochloride) [Example 28, 3-(((3,4-dihydroquinazolin-2-yl)thio)methyl)-5H-pyrido[2,3-d]thiazolo[3,2-a]pyrimidine trihydrochloride] | 180 to 190 |
| CC1CCN(CCSC2=NCc3ccccc3N2)C1 (centres unmarked) (as salt: hydrochloride) [Example 138, 2-((2-(3-methylpyrrolidin-1-yl)ethyl)thio)-1,4-dihydroquinazoline dihydrochloride] | 178 to 182 |
| c1ccc(CC2CN=C(SCCN3CCCCC3)N2)cc1 (centres unmarked) (as salt: hydrochloride) [Example 50, 1-(2-((5-benzyl-4,5-dihydro-1H-imidazol-2-yl)thio)ethyl)piperidine dihydrochloride] | 50 to 60 |
| COc1cc2nc3n(c2cc1OC)C(O)(CSC1=NCc2ccccc2N1)CS3.Cl (centres unmarked) | 235 to 240 |
| C1=C(CSC2=N[C@@H]3CCCC[C@H]3N2)N2Cc3ccccc3N=C2S1 (as salt: hydrochloride) [Example 32, 3-((((3aR,7aR)-3a,4,5,6,7,7a-hexahydro-1H-benzo[d]imidazol-2-yl)thio)methyl)-5H-thiazolo[2,3-b]quinazoline dihydrochloride] | > 250 |
| C1=C(CSC2=NCc3ccccc3N2)N2C(=N[C@H]3CCCC[C@@H]32)S1 (relative stereo) (as salt: hydrochloride) [Example 13, trans-3-(((3,4-dihydroquinazolin-2-yl)thio)methyl)-4a,5,6,7,8,8a-hexahydrobenzo[4,5]imidazo[2,1-b]thiazole dihydrochloride] | 240 to 244 |

| Structure (SMILES) | melting point [°C] |
| --- | --- |
| CC1(C)CN=C(SCC2=CSC3=NCc4ccccc4CN23)N1 (as salt: hydrochloride) [Example 8, 3-(((5,5-dimethyl-4,5-dihydro-1H-imidazol-2-yl)thio)methyl)-5,10-dihydrobenzo[e]thiazolo[3,2-a][1,3]diazepine dihydrochloride] | 244 to 247 |
| Ic1cc2c(c(I)c1I)NC(SCCN1CCCC1)=NC2 (as salt: hydrochloride) [Example 134, 6,7,8-triiodo-2-((2-(pyrrolidin-1-yl)ethyl)thio)-1,4-dihydroquinazoline dihydrochloride] | 190 to 195 |
| C1=C(CSC2=NCc3ccccc3N2)N2C[C@H](Cc3c[nH]c4ccccc34)N=C2S1 (as salt: hydrochloride) [Example 109, (S)-6-((1H-indol-3-yl)methyl)-3-(((1,4-dihydroquinazolin-2-yl)thio)methyl)-5,6-dihydroimidazo[2,1-b]thiazole dihydrochloride] | 180 to 190 |
| c1ccc2c(c1)CN(CCSC1=NCc3ccccc3N1)C2 (as salt: hydrochloride) [Example 71, 2-((2-(isoindolin-2-yl)ethyl)thio)-3,4-dihydroquinazoline dihydrochloride] | 134 to 138 |
| CC1(C)CN=C(SCC2=CSC3=Nc4ccccc4CN23)N1 (as salt: hydrochloride) [Example 5, 3-(((5,5-dimethyl-4,5-dihydro-1H-imidazol-2-yl)thio)methyl)-5H-thiazolo[2,3-b]quinazoline dihydrochloride] | > 250 |
| Fc1cccc2c1CN=C(SCC1=CSC3=NC(Cc4ccccc4)CN13)N2 (centres unmarked) (as salt: hydrochloride) [Example 117, 6-benzyl-3-(((5-fluoro-1,4-dihydroquinazolin-2-yl)thio)methyl)-5,6-dihydroimidazo[2,1-b]thiazole dihydrochloride] | 147 to 151 |
| c1ccc(C2CCCN2CCSC2=NCc3ccccc3N2)cc1 (centres unmarked) (as salt: hydrochloride) [Example 128, 2-((2-(2-phenylpyrrolidin-1-yl)ethyl)thio)-1,4-dihydroquinazoline dihydrochloride] | 94 to 108 |
| c1ccc2c(c1)CN=C(SCCN1[C@@H]3CCC[C@H]1CC3)N2 (as salt: hydrochloride) [Example 133, 2-((2-((1R,5S)-8-azabicyclo[3.2.1]octan-8-yl)ethyl)thio)-3,4-dihydroquinazoline dihydrochloride] | 52 to 70 |
| C1=C(CSC2=NCC(Cc3ccccc3)N2)N2Cc3ccccc3N=C2S1 (centres unmarked) (as salt: hydrochloride) [Example 33, 3-(((5-benzyl-4,5-dihydro-1H-imidazol-2-yl)thio)methyl)-5H-thiazolo[2,3-b]quinazoline dihydrochloride] | > 250 |
| COc1ccc(CC2(C)CN3C(CSC4=NCc5ccccc5N4)=CSC3=N2)cc1 (centres unmarked) (as salt: hydrochloride) [Example 46, 3-(((3,4-dihydroquinazolin-2-yl)thio)methyl)-6-(4-methoxybenzyl)-6-methyl-5,6-dihydroimidazo[2,1-b]thiazole dihydrochloride] | 156 to 168 |
| C1=C(CSC2=NCc3ccccc3N2)N2CC(Cc3ccccc3)N=C2S1 (centres unmarked) (as salt: hydrochloride) [Example 65, 6-benzyl-3-(((3,4-dihydroquinazolin-2-yl)thio)methyl)-5,6-dihydroimidazo[2,1-b]thiazole dihydrochloride] | 142 to 148 |
| c1ccc2c(c1)CN=C(SCCN1CCCC1)N2 (as salt: hydrochloride) [Example 77, 2-((2-(pyrrolidin-1-yl)ethyl)thio)-1,4-dihydroquinazoline dihydrochloride] | 195 to 203 |
| Fc1ccc(CC2CN3C(CSC4=NCc5ccccc5N4)=CSC3=N2)cc1 (centres unmarked) (as salt: hydrochloride) [Example 196, 3-(((1,4-dihydroquinazolin-2-yl)thio)methyl)-6-(4-fluorobenzyl)-5,6-dihydroimidazo[2,1-b]thiazole dihydrochloride] | 155 to 160 |
| CN1CCCC1CSC1=NCC(Cc2ccccc2)N1 (centres unmarked) (as salt: hydrochloride) [Example 53, 5-benzyl-2-(((1-methylpyrrolidin-2-yl)methyl)thio)-4,5-dihydro-1H-imidazole dihydrochloride] | 70 to 80 |
| C1=C(CSC2=NCc3ccccc3N2)N2C(=N[C@H](c3ccccc3)[C@H]2c2ccccc2)S1 (relative stereo) (as salt: hydrochloride) [Example 16, trans-3-(((3,4-dihydroquinazolin-2-yl)thio)methyl)-5,6-diphenyl-5,6-dihydroimidazo[2,1-b]thiazole dihydrochloride] | 175 to 185 |
| CC1(C)N=C(SCC2=CSC3=NCc4ccccc4CN23)Nc2ccccc21 (as salt: hydrochloride) [Example 21, 3-(((4,4-dimethyl-1,4-dihydroquinazolin-2-yl)thio)methyl)-5,10-dihydrobenzo[e]thiazolo[3,2-a][1,3]diazepine dihydrochloride] | > 250 |
